This is an account of results in patent US6369246B2, “Synthesis and pharmaceuticals of novel 9-substituted-1, 5-dichloroanthracene analogs” (Dr. Keith Chan, GloboAsia, LLC, priority 1999, dated 2002).

pIC50: −log10 of the molar value. Where two headings read alike, the source gives them in different places.

Assay [1] relates to iron-induced lipid peroxidation in rat brain homogenates. The experiment in a line: Lipid peroxidation assay (TBA). In kind it is biochemical, Wistar rats. The settings on record: ferrous ion 200 μM, 37° C. 30 min; for % Inhibition (1 μM), relative percentage of inhibition: 1 μM compound; for % Inhibition (10 μM), relative percentage of inhibition: 10 μM compound. The procedure:
Rat brain homogenate was prepared from the brains of freshly killed Wistar rats and its peroxidation. In the presence of iron ions was measured by the thiobarbituric acid (TBA). Teng, C. M. et al., Eur. J. Pharmacol., 303, 129-139 (1996). Tetramethoxypropane was used as a standard, and the results were expressed as nanomoles of malondialdehyde equivalents per milligram of protein of rat brain homogenates. In brief, whole brain tissue, excluding the cerebellum, was washed and homogenized in 10 volumes of ice-cold Krebs buffer (10 mM N-2 hydroxyethyl-piperazine-N′-2-ethanesulfonic acid (Hepes), 10 mM glucose, 140 mM NaCl, 3.6 mM KCl, 1.5 mM CaCl2, 1.4 mM KH2PO4, 0.7 mM MgSO4, pH 7.4) using a glass Dounce homogenizer. […] The reaction mixture with test compounds or vehicle was incubated for 10 min, then stimulated by addition of ferrous ion (200 μM freshly prepared), and maintained at 37° C. for 30 min. The reactions were terminated by adding […] of ice-cold trichloroacetic acid solution (4% (w/v) in 0.3 N HCl) and […], of thiobarbituric acid-reactive substance reagent (0.5% (w/v) thiobarbituric acid in 50% (v/v) acetic acid). After boiling for 15 min, the samples were cooled and extracted with n-butanol. The extent of lipid peroxidation was estimated as thiobarbituric acid-reactive substances and was read at 532 nm in a spectrophotometer (Shimadzu UV-160).

Assay [2] relates to GBM cell line (human cervical carcinoma cells of ME 180 (GBM8401)). The experiment in a line: Growth inhibition assay, GBM cell line. The settings on record: cell counting, read-out: IC50 GBM (concentration required to inhibit cell growth by 50% relative to controls). In kind it is cell-based. How it is done:
(§1) Growth inhibition was measured in three human carcinoma cell lines (GBK KB and CHO) using a previously described […] assay. Hwang, J.-M. et al., Chin. Med. J (Taipei), 51, 166-175 (1993). Human oral epidermoid carcinoma cells (KB cell line), human cervical carcinoma cells of ME 180 (GBM8401) and Chinese hamster ovary (CHO) cells grown in plateau phase were used in all experiments. Each cell line was further divided into control and experimental groups, respectively.
(§2) Stock solutions of the test compounds were prepared in DMSO and diluted with DMEM to give a final concentration of DMSO of 0.2%. Controls were performed with DMSO or with medium alone. The medium was removed and each well was rinsed with 100 μL PBS 48 hours after addition of the test compound to the culture. The cells were then incubated with sterile 0.5% trypsin, 0.2% EDTA in PBS for 20 minutes at 37° C. The detached cells from each well were suspended in DMEM and dispersed into single cells by gentle pipeting through an Eppendorf pipette and cell growth was determined directly by counting the cells in a Neubauer counting chamber using phase contrast microscopy. Inhibition was calculated by comparison of the mean values of the test compound (N=3) with the control (N=6−8) activity: (1-test compound/control) ×100. Inhibition was statistically significant compared to that of control (Student's t Test; P=0.05). IC50 values (concentration required to inhibit cell growth by 50%) were determined for each agent which was derived by interpolation of a log inhibitor concentration versus response plot using four or more different concentrations of the compound spanning the 50% inhibition point.

Assay [3] has as its system Human oral epidermoid carcinoma cells (KB cell line). As to the kind of experiment: Growth inhibition assay, KB cell line. In kind it is cell-based. The settings on record: 48 hours, cell counting, read-out: IC50 KB (concentration required to inhibit cell growth by 50% relative to controls). How it is done:
as §1, §2

Assay [4] relates to Chinese hamster ovary (CHO) cells. The experiment in a line: Growth inhibition assay, CHO cells. In kind it is cell-based. The settings on record: 48 hours, cell counting, read-out: IC50 CHO (concentration required to inhibit cell growth by 50% relative to controls). The procedure:
as §1, §2

In the case of “1,5-Dichloro-9-(p-toluoxy)-anthracene [Compound 3o]”, in assay [1], the “% Inhibition (1 μM), relative percentage of inhibition” value worked out at 2.9% and the “% Inhibition (10 μM), relative percentage of inhibition” value was 25.6%. In addition, in assay [2] (48 hours), the pIC50 is 4.95. In addition, the pIC50 in assay [3] is 3.06.
Consider `Cc1c(C)c2c(c(C)c1O)CC[C@@](C)(CCC[C@H](C)CCC[C@H](C)CCCC(C)C)O2` [(+)-a-Tocopherol, reference compound], for which, in assay [1], the “% Inhibition (1 μM), relative percentage of inhibition” value is reported as 61.6% and the “% Inhibition (10 μM), relative percentage of inhibition” value came to 100%.
For `O=C(Oc1c2cccc(Cl)c2cc2cccc(Cl)c12)c1ccccc1` [Compound 3L, 1,5-Dichloro-9-benzoyloxy-anthracene], in assay [1], the “% Inhibition (1 μM), relative percentage of inhibition” value came out at 4.6%. Besides, the “% Inhibition (10 μM), relative percentage of inhibition” value in assay [1] is 14.0%. The pIC50 in assay [4] (Cricetulus griseus) was 2.84; in assay [2] (Homo sapiens, ME-180, 48 hours), 3.65; in assay [3] (Homo sapiens) it was 3.09.
In the case of `CC(=O)Oc1c2cccc(Cl)c2cc2cccc(Cl)c12` [Compound 3a, 1,5-Dichloro-9-acetyloxy-anthracene], in assay [1], the “% Inhibition (1 μM), relative percentage of inhibition” value was 25.5%. Besides, the “% Inhibition (10 μM), relative percentage of inhibition” value in assay [1] is recorded as 34.4%. In addition, the pIC50 was 3.94 in assay [4] (Cricetulus griseus); 4.32 in assay [2] (Homo sapiens, ME-180, 48 hours); 3.33 in assay [3] (Homo sapiens).
As to `O=C(CBr)Oc1c2cccc(Cl)c2cc2cccc(Cl)c12` [Compound 3b], in assay [1], the “% Inhibition (1 μM), relative percentage of inhibition” value was 100%. Moreover, in assay [1], the “% Inhibition (10 μM), relative percentage of inhibition” value came to 100%. Further, the pIC50 was 2.99 in assay [4], 4.72 in assay [2] (48 hours) and 3.87 in assay [3].
As for `O=C(CCl)Oc1c2cccc(Cl)c2cc2cccc(Cl)c12` [Compound 3c], the “% Inhibition (1 μM), relative percentage of inhibition” value in assay [1] is listed as 100%. The “% Inhibition (10 μM), relative percentage of inhibition” value in assay [1] is recorded as 100%. The pIC50 in assay [4] was 5.92; in assay [2] (48 hours), 3.98; in assay [3], 3.28.
In the case of `CCC(=O)Oc1c2cccc(Cl)c2cc2cccc(Cl)c12` [Compound 3d], the “% Inhibition (1 μM), relative percentage of inhibition” value in assay [1] came to 100%. Also, the “% Inhibition (10 μM), relative percentage of inhibition” value in assay [1] came out at 100%. The pIC50 in assay [4] was 2.94; in assay [2] (48 hours) it was 4.76; in assay [3] it was 3.33.
For `CC(C)C(=O)Oc1c2cccc(Cl)c2cc2cccc(Cl)c12` [Compound 3e], the “% Inhibition (1 μM), relative percentage of inhibition” value in assay [1] is 1.5%. Besides, in assay [1], the “% Inhibition (10 μM), relative percentage of inhibition” value stood at 28.6%. The pIC50 in assay [4] is 2.88; in assay [2] (48 hours) it was 3.71; in assay [3], 3.37.
For the molecule `CC(Cl)C(=O)Oc1c2cccc(Cl)c2cc2cccc(Cl)c12` (stereo not shown) [Compound 3f], in assay [1], the “% Inhibition (1 μM), relative percentage of inhibition” value stood at 9.8%. Moreover, the “% Inhibition (10 μM), relative percentage of inhibition” value in assay [1] came out at 60.6%. Also, the pIC50 was 3.02 in assay [4], 3.90 in assay [2] (48 hours) and 3.43 in assay [3].
For the molecule `O=C(Oc1c2cccc(Cl)c2cc2cccc(Cl)c12)C(Cl)Cl` [Compound 3g], in assay [1], the “% Inhibition (1 μM), relative percentage of inhibition” value was 61.7%. The “% Inhibition (10 μM), relative percentage of inhibition” value in assay [1] was 100%. For the same molecule, the values for the pIC50 in assay [4], in assay [2] (48 hours) and in assay [3] were 2.89, 5.85 and 3.28, respectively.
Take `CCCC(=O)Oc1c2cccc(Cl)c2cc2cccc(Cl)c12` [Compound 3h]: the “% Inhibition (1 μM), relative percentage of inhibition” value in assay [1] is recorded as 11.8%. The “% Inhibition (10 μM), relative percentage of inhibition” value in assay [1] was 17.7%. Also, the pIC50 is 7.00 in assay [4], 3.24 in assay [2] (48 hours) and 3.26 in assay [3].
The corresponding values for `O=C(CCCBr)Oc1c2cccc(Cl)c2cc2cccc(Cl)c12` [Compound 3i] are 38.1%, 100%, 3.96, 3.69 and 3.34.
Consider `O=C(CCCCl)Oc1c2cccc(Cl)c2cc2cccc(Cl)c12` [Compound 3j], for which, in assay [1], the “% Inhibition (1 μM), relative percentage of inhibition” value worked out at 10.0%. For the same molecule, in assay [1], the “% Inhibition (10 μM), relative percentage of inhibition” value was found to be 29.0%. The pIC50 is 2.93 in assay [4], 5.96 in assay [2] (48 hours) and 4.96 in assay [3].
For `CCCCCC(=O)Oc1c2cccc(Cl)c2cc2cccc(Cl)c12` [Compound 3k], in assay [1], the “% Inhibition (1 μM), relative percentage of inhibition” value was 12.2%. Also, the “% Inhibition (10 μM), relative percentage of inhibition” value in assay [1] is 17.2%. Also, the pIC50 is 4.26 in assay [4], 5.92 in assay [2] (48 hours) and 3.50 in assay [3].
`Cc1ccccc1C(=O)Oc1c2cccc(Cl)c2cc2cccc(Cl)c12` [Compound 3m]: in assay [1], the “% Inhibition (1 μM), relative percentage of inhibition” value was determined as 0%. Further, the “% Inhibition (10 μM), relative percentage of inhibition” value in assay [1] amounted to 23.0%. For the same molecule, the pIC50 in assay [4] is 2.82; in assay [2] (48 hours), 3.97; in assay [3], 2.94.
The corresponding values for `Cc1cccc(C(=O)Oc2c3cccc(Cl)c3cc3cccc(Cl)c23)c1` [Compound 3n, 1,5-Dichloro-9-(m-toluyloxy)-anthracene] are 10.9%, 22.4%, 2.92, 3.40 and 3.96.
For `O=C(Oc1c2cccc(Cl)c2cc2cccc(Cl)c12)c1cccc(Cl)c1` [Compound 3p], in assay [1], the “% Inhibition (1 μM), relative percentage of inhibition” value turned out to be 8.6% and the “% Inhibition (10 μM), relative percentage of inhibition” value was determined as 30.6%. In assay [2] (48 hours), the pIC50 is 4.93. In addition, the pIC50 in assay [3] is 2.98.
As for `COc1cc(Cl)ccc1C(=O)Oc1c2cccc(Cl)c2cc2cccc(Cl)c12` [Compound 3t], in assay [1], the “% Inhibition (1 μM), relative percentage of inhibition” value came out at 0%. Moreover, in assay [1], the “% Inhibition (10 μM), relative percentage of inhibition” value is 10.3%. Besides, the pIC50 in assay [4] was 3.94; in assay [2] (48 hours) it was 4.97; in assay [3], 3.09.
On to `O=C(Oc1c2cccc(Cl)c2cc2cccc(Cl)c12)c1ccc(Cl)cc1Cl` [Compound 3u], for which, in assay [1], the “% Inhibition (1 μM), relative percentage of inhibition” value was 1.7%. In addition, in assay [1], the “% Inhibition (10 μM), relative percentage of inhibition” value was determined as 16.0%. Moreover, the figures for the pIC50 in assay [4], in assay [2] (48 hours) and in assay [3] were 2.93, 4.06 and 3.97, respectively.
With `O=C(Cc1ccccc1)Oc1c2cccc(Cl)c2cc2cccc(Cl)c12` [Compound 3v], the “% Inhibition (1 μM), relative percentage of inhibition” value in assay [1] is recorded as 13.7%. For the same molecule, in assay [1], the “% Inhibition (10 μM), relative percentage of inhibition” value is recorded as 32.8%. Also, the pIC50 in assay [4] was 2.93; in assay [2] (48 hours) it was 3.96; in assay [3], 4.90.
`COc1cccc2c1C(=O)c1c(O)c3c(c(O)c1C2=O)C[C@@](O)(C(=O)CO)C[C@@H]3O[C@H]1C[C@H](N)[C@H](O)[C@H](C)O1` [Doxorubicin, reference compound]: the pIC50 is 3.30 in assay [4] (Cricetulus griseus); 3.22 in assay [2] (Homo sapiens, ME-180, 48 hours); 3.38 in assay [3] (Homo sapiens).
As to `CN(Cc1cnc2nc(N)nc(N)c2n1)c1ccc(C(=O)N[C@@H](CCC(=O)O)C(=O)O)cc1` [Methotrexate, reference compound], the pIC50 was 2.04 in assay [4] (Cricetulus griseus); 2.03 in assay [2] (Homo sapiens, ME-180, 48 hours); 1.33 in assay [3] (Homo sapiens).
As to `CO[C@@]12[C@H](COC(N)=O)C3=C(C(=O)C(C)=C(N)C3=O)N1C[C@@H]1N[C@@H]12` [Mitomycin-C, reference compound], the pIC50 in assay [4] is 2.67; in assay [2] (48 hours), 2.72.
